Series [1] can be described thus: DPPH test, activity as free-radical scavenger. In kind it is biochemical. The conditions noted are these: DPPH 100 μmol/l in methanol, absorption at 515 nm. The protocol:
The activity of the illustrative compounds as in examples 7 to 13 as free-radical scavengers was compared with the conventional free-radical scavenger and two examples from WO 95 01,157. For this, the DPPH (1,1-diphenyl-2-picryl-hydrazyl) test was used to eliminate free radicals.
DPPH was dissolved in methanol to a concentration of 100 μmol/l. A series of dilutions of the illustrative compounds, vitamin C, α-tocopherol and dibutylhydroxytoluene were prepared in methanol. Methanol was used as the control. 2500 μl of the DPPH solution were mixed with 500 μl of each test solution, and the decrease in the absorption at 515 nm was read off until the decrease was less than 2% per hour. The activity of the test substances as free-radical scavengers was calculated according to the following equation:
Activity as free-radical scavenger (%)=100−(absorption of the test compounds)/(absorption of the control)×100.
The activity of the free-radical scavengers (%) in a series of dilutions of test compounds was used to calculate, for each test compound, the effective relative concentration EC50 (based on the initially present concentration of DPPH, EC=c (test compound)/c(DPPH)) of a test compound at which 50% of the DPPH free radical had been eliminated.

A short description of series [2]: Rancimat accelerated autoxidation of lipids by air, soybean oil. The settings on record: antioxidative index = IP(with test solution)/IP(control sample), soybean oil purified over alumina, 0.05% test substance. The protocol: (§1) The activity of the illustrative compounds according to Examples 7 to 13 as antioxidants was compared with the conventional antioxidants and two examples from WO 95 01,157. The test system used was the accelerated autoxidation of lipids by air with or without antioxidant using the Rancimat apparatus (Rancimat is a registered trademark of Metrohm AG, Herisau, Switzerland).
(§2) The illustrative compounds, vitamin C, α-tocopherol and dibutyihydroxytoluene were dissolved in methanol or acetone and 100 μl of each test solution were added to a prepared oil sample of 3 g. In a control sample only solvent was added. A constant stream of dry air (20 l/h) was bubbled through the heated oil sample containing the test solution, and the volatile oxidation products (predominantly short-chain fatty acids such as formic acid or acetic acid) were collected in a receiver containing water. The conductivity of this aqueous solution was measured continuously and documented. The oxidation of (unsaturated) fats proceeds here only very slowly for a period of time and then suddenly increases greatly. The time to the increase is referred to as the induction period (IP).
(§3) The antioxidative index (AOI) was obtained according to the following equation:
(§4) AOI=IP(with test solution)/IP(control sample).

A short description of series [3]: Rancimat accelerated autoxidation of lipids by air, squalene. The settings on record: antioxidative index = IP(with test solution)/IP(control sample), squalene purified over alumina, stabilized with 1 ppm α-tocopherol, 0.005% test substance. The procedure: as §1, §2, §3, §4
The results for the experiment at 80° C. in squalene that was purified over alumina grade N and stabilized with 1 ppm of α-tocopherol are shown in table 4: […]

As for `Cc1cc(C(C)(C)C)c(O)c(C(C)(C)C)c1` [Dibutylhydroxytoluene, reference compound], the “EC50 (effective relative concentration, c(test compound)/c(DPPH), at which 50% of the DPPH free radical had been eliminated)” value in series [1] is listed as 0.240 mol/mol. Also, in series [2], the “AOI in soybean oil at 100° C. with 0.05% of test substance” value (“AOI … with 0.05% of test substance” below) came out at 4.8. Further, the “AOI in squalene at 80° C. with 0.005% of test substance” value (“AOI … with 0.005% of test substance” below) in series [3] is recorded as 38.
Take `ON=Cc1ccc(O)c(O)c1` [Example 7, 3,4-Dihydroxybenzaldehyde oxime]: the melting point (commonly the temperature of the solid-liquid transition) was 143 °C (dec.). Further, the “EC50 (effective relative concentration, c(test compound)/c(DPPH), at which 50% of the DPPH free radical had been eliminated)” value in series [1] came out at 0.053 mol/mol. The “AOI … with 0.05% of test substance” value in series [2] is given as 15.8. Also, in series [3], the “AOI … with 0.005% of test substance” value is 70.
`CC(=NO)c1ccc(O)c(O)c1` [Example 8, 3,4-Dihydroxyacetophenone oxime]: the “EC50 (effective relative concentration, c(test compound)/c(DPPH), at which 50% of the DPPH free radical had been eliminated)” value in series [1] is 0.073 mol/mol. Moreover, the “AOI … with 0.05% of test substance” value in series [2] worked out at 16.6. Also, the “AOI … with 0.005% of test substance” value in series [3] amounted to 95.
Regarding `ON=Cc1cc(O)c(O)c(O)c1` [Example 9, 3,4,5-Trihydroxybenzaldehyde oxime], the melting point was 177 °C (dec.). The “EC50 (effective relative concentration, c(test compound)/c(DPPH), at which 50% of the DPPH free radical had been eliminated)” value in series [1] was 0.090 mol/mol. In addition, the “AOI … with 0.05% of test substance” value in series [2] worked out at 20.9. The “AOI … with 0.005% of test substance” value in series [3] came out at 150.
The molecule `CCON=Cc1ccc(O)c(O)c1` [Example 10, 3,4-Dihydroxybenzaldehyde O-ethyloxime] gave a melting point of less than 23 °C. In addition, in series [1], the “EC50 (effective relative concentration, c(test compound)/c(DPPH), at which 50% of the DPPH free radical had been eliminated)” value amounted to 0.156 mol/mol. Also, the “AOI … with 0.05% of test substance” value in series [2] was 17.3. In addition, the “AOI … with 0.005% of test substance” value in series [3] was determined as 85.
The matching figures for `Cc1ccc(CON=Cc2ccc(O)c(O)c2)cc1` [Example 11, 3,4-Dihydroxybenzaldehyde O-(4-methylbenzyl)oxime]: 85 to 86 °C, 0.131 mol/mol, 14.1 and 50.
Turning to `CCON=C(C)c1ccc(O)c(O)c1` [Example 12, 3,4-Dihydroxyacetophenone O-ethyloxime], the “EC50 (effective relative concentration, c(test compound)/c(DPPH), at which 50% of the DPPH free radical had been eliminated)” value in series [1] turned out to be 0.298 mol/mol. Besides, the “AOI … with 0.05% of test substance” value in series [2] was determined as 15.2. In addition, in series [3], the “AOI … with 0.005% of test substance” value is listed as 65.
Regarding `CCON=Cc1cc(O)c(O)c(O)c1` [Example 13, 3,4,5-Trihydroxybenzaldehyde O-ethyloxime], the melting point worked out at 80 °C. Further, the “EC50 (effective relative concentration, c(test compound)/c(DPPH), at which 50% of the DPPH free radical had been eliminated)” value in series [1] is on record as 0.132 mol/mol. For the same molecule, in series [2], the “AOI … with 0.05% of test substance” value is reported as 17.2. In addition, in series [3], the “AOI … with 0.005% of test substance” value was 126.
With `O=C1O[C@H]([C@@H](O)CO)C(O)=C1O` [Vitamin C, reference compound], in series [1], the “EC50 (effective relative concentration, c(test compound)/c(DPPH), at which 50% of the DPPH free radical had been eliminated)” value was 0.270 mol/mol. Also, the “AOI … with 0.05% of test substance” value in series [2] is reported as 1.2. Also, the “AOI … with 0.005% of test substance” value in series [3] worked out at 0.7.
Taken in the same sequence, the figures for `CC(=NO)c1ccccc1O` [o-Hydroxyacetophenone oxime, reference compound] were greater than 3.0 mol/mol, 0.9 and 1.6.
`Cc1c(C)c2c(c(C)c1O)CC[C@@](C)(CCC[C@H](C)CCC[C@H](C)CCCC(C)C)O2` [α-Tocopherol, reference compound]: the “EC50 (effective relative concentration, c(test compound)/c(DPPH), at which 50% of the DPPH free radical had been eliminated)” value in series [1] is recorded as 0.250 mol/mol. In series [2], the “AOI … with 0.05% of test substance” value was 5.1. For the same molecule, the “AOI … with 0.005% of test substance” value in series [3] came out at 39.

These data come from patent US20030049287A1, “Catechol oximes and their use in cosmetic and dermatological preparations” (priority 1999, published 2003).
